In PMC8161735 (Toxicology, 2021):

Biological target: human ether-a-go-go-related gene (hERG) potassium channel (Homo sapiens, UniProt Q12809)
Test: whole-cell patch clamp, hERG tail current in hERG-HEK-293 cells
Format: cell-based

Chain of human ether-a-go-go-related gene (hERG) potassium channel (Q12809 whole entry): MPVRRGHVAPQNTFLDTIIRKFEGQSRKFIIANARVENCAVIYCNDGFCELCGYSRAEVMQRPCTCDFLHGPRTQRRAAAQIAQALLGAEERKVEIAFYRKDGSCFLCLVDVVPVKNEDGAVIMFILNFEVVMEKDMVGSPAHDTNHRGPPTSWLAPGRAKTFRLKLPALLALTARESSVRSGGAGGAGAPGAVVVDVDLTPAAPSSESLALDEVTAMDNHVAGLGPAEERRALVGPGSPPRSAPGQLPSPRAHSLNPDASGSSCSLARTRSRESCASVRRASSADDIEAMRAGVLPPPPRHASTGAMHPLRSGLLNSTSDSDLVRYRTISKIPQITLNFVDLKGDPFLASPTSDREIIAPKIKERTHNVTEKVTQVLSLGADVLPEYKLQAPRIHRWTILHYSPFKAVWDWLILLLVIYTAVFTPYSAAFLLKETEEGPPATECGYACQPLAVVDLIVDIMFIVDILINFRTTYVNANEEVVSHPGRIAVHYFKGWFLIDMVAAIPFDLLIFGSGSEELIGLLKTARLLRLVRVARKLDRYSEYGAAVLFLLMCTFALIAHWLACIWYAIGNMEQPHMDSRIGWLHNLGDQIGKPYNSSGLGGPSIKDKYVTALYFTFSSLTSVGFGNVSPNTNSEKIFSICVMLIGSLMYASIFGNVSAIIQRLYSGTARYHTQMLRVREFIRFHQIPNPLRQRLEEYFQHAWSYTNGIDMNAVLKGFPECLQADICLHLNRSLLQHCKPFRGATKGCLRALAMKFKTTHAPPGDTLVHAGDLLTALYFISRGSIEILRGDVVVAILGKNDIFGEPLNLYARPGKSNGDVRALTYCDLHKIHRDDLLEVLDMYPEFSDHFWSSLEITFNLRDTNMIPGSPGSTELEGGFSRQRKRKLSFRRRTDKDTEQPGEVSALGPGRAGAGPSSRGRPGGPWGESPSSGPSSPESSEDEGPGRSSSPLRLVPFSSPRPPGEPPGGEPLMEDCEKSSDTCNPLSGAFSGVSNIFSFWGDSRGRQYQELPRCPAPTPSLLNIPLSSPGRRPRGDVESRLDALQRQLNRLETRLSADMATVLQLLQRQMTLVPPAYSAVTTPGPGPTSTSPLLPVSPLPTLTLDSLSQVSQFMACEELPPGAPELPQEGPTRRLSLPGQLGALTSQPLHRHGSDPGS

Compound: CCN(CCO)CCCC(C)Nc1ccnc2cc(Cl)ccc12 (stereo not shown) [HCQ, Hydroxychloroquine]
- IC50: 8.6 µM
